Reference: the supplement of paper PMC10307832

Tests used:
Assay in all cases: relative viability (nuclei count vs DMSO), 5 days (fraction); higher = more cells survive
RU-SKI 43 + Palbociclib = compound: CC[C@@H](C)CNCC(=O)N1CCC2=C([C@@H]1COC3=CC=CC(=C3)C)C=CS2 [RU-SKI 43] + CC(=O)c1c(C)c2cnc(Nc3ccc(N4CCNCC4)cn3)nc2n(C2CCCC2)c1=O [Palbociclib] (partner 0.5 µM)
Summary of the method: (§1)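 The day after seeding in 1536-well plates, lung cancer cell lines were treated by pin tool with a single drug, or with a fixed anchor-drug dose together with five library-drug doses (not always all listed) in √10 steps. After 5 days, a combined fix-and-stain solution (final 0.05% Triton X-100, 1% formaldehyde, 1 ug/ml Hoechst) was added. Nuclei counted on 4× images gave relative viability as treated counts over vehicle counts, reported as the median of duplicate plates.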

Irinotecan + Tozasertib = compound: CCc1c2c(nc3ccc(OC(=O)N4CCC(N5CCCCC5)CC4)cc13)-c1cc3c(c(=O)n1C2)COC(=O)[C@]3(O)CC [Irinotecan] + Cc1cc(Nc2cc(N3CCN(C)CC3)nc(Sc3ccc(NC(=O)C4CC4)cc3)n2)n[nH]1 [Tozasertib] (partner 0.1 µM)
Summary of the method: as §1

MK-8033 + Navitoclax = compound: Cn1cc(-c2cnc3ccc4ccc(CS(=O)(=O)NCc5ccccn5)cc4c(=O)c3c2)cn1 [MK-8033] + CC1(C)CCC(c2ccc(Cl)cc2)=C(CN2CCN(c3ccc(C(=O)NS(=O)(=O)c4ccc(N[C@H](CCN5CCOCC5)CSc5ccccc5)c(S(=O)(=O)C(F)(F)F)c4)cc3)CC2)C1 [Navitoclax] (partner 0.5 µM)
Summary of the method: as §1

MK-8033 + AZD7762 = compound: Cn1cc(-c2cnc3ccc4ccc(CS(=O)(=O)NCc5ccccn5)cc4c(=O)c3c2)cn1 [MK-8033] + NC(=O)Nc1cc(-c2cccc(F)c2)sc1C(=O)N[C@H]1CCCNC1 [AZD7762] (partner 0.2 µM)
Summary of the method: as §1

Cell Line	relative viability (RU-SKI 43 + Palbociclib; first compound 0.1 µM)	relative viability (RU-SKI 43 + Palbociclib; first compound 0.3162 µM)	relative viability (RU-SKI 43 + Palbociclib; first compound 1 µM)	relative viability (RU-SKI 43 + Palbociclib; first compound 3.162 µM)	relative viability (RU-SKI 43 + Palbociclib; first compound 10 µM)	relative viability (Irinotecan + Tozasertib; first compound 0.6325 µM)	relative viability (Irinotecan + Tozasertib; first compound 2 µM)	relative viability (Irinotecan + Tozasertib; first compound 6.325 µM)	relative viability (Irinotecan + Tozasertib; first compound 20 µM)	relative viability (MK-8033 + Navitoclax; first compound 0.02 µM)	relative viability (MK-8033 + Navitoclax; first compound 0.2 µM)	relative viability (MK-8033 + Navitoclax; first compound 0.6325 µM)	relative viability (MK-8033 + Navitoclax; first compound 2 µM)	relative viability (MK-8033 + AZD7762; first compound 0.02 µM)	relative viability (MK-8033 + AZD7762; first compound 0.2 µM)	relative viability (MK-8033 + AZD7762; first compound 0.6325 µM)	relative viability (MK-8033 + AZD7762; first compound 2 µM)	relative viability (MK-8033 + Navitoclax; first compound 0.06325 µM)	relative viability (MK-8033 + AZD7762; first compound 0.06325 µM)
HCC-827	0.474	0.414	0.56	0.498	0.427	0.318	0.307	0.249	0.175	0.963	0.939	0.918	0.984	0.259	0.196	0.207	0.238		
HOP-62	0.462	0.508	0.532	0.469	0.403	0.234	0.328	0.249	0.215	1.03	1.03	1.12	0.955	0.67	0.464	0.471	0.578	0.89	0.722
IA-LM										0.712	0.907	0.912	0.696					0.618	
LCLC-103H	0.525	0.453	0.471	0.495	0.496	0.431	0.425	0.301	0.32					0.756	0.788	0.741	0.82		0.712
NCI-H358	0.129	0.152	0.15	0.128	0.128	0.104	0.141	0.145	0.128					0.541	0.431	0.428	0.458		0.347
NCI-H520	0.247	0.241	0.259	0.237	0.148	0.446	0.514	0.445	0.427	1.14	1.02	1.06	0.975					1.03	
NCI-H522	1.22	1.08	1.18	1.29	0.977	0.506	0.502	0.526	0.486					0.831	0.809	0.881	0.97		0.748
NCI-H596						0.798	0.878	0.632	0.624	0.923	0.856	0.857	0.951	1.04	1.01	1.04	0.985	0.884	0.995
NCI-H650	0.344	0.312		0.338	0.337	0.703	0.553	0.202	0.181					0.947	0.982	0.945	0.985		0.997
NCI-H661	0.384	0.398	0.401	0.348	0.344	0.372	0.372	0.469	0.333										
NCI-H1299										1.04	1.03	1.07	1.01					1.03	
NCI-H1623						0.343	0.34	0.227	0.227										
NCI-H1648	0.284	0.26	0.257	0.304	0.271	0.39	0.346	0.402	0.291					0.6	0.533	0.702	0.769		
NCI-H1650	0.375	0.346	0.338	0.351	0.302		0.423	0.366	0.211	1.21	1.11	1.11	1.18					1.13	
NCI-H1703										0.967	0.988	1.12	0.924	0.109	0.124	0.108	0.12	1.08	0.117
NCI-H1792	0.692	0.764	0.685	0.698	0.662					0.826	0.593	0.61	0.653	0.582	0.617	0.7	0.515	0.649	0.502
NCI-H2009	0.181	0.214	0.219	0.229	0.194	0.599	0.566	0.334	0.13	1.16	1.08	1.15	1.14					1.12	
NCI-H2023	0.383	0.385	0.444	0.451	0.311	0.355	0.408	0.205	0.104	1.08	0.933	0.943	0.847					0.881	
NCI-H2228	0.735	1.05	0.892	0.535	0.737	0.259	0.31	0.348	0.287	1.37	0.754	0.54	0.839					0.876	
NCI-H2342	0.524		0.547	0.524	0.488	0.488	0.528	0.445	0.372					0.636	0.454	0.454	0.646		0.438
SK-LU-1	0.386	0.386	0.403	0.416	0.354	0.315	0.295	0.26	0.285	0.808	0.792	0.919	0.807					0.798	
SK-MES-1	0.292	0.304	0.34	0.344	0.26	0.659	0.473	0.248	0.151	1.23	1.16	1.23	1.18					1.16	
SW 900	0.542	0.513	0.522	0.522	0.45	0.379	0.528	0.439	0.485					0.575	0.564	0.621	0.498		0.487
SW 1573	0.37	0.453	0.397	0.375	0.283	0.152	0.311	0.183	0.155	0.721	0.991	0.884	0.95						
